# Experiments:
# Assay in all cases: relative viability (nuclei count vs DMSO), 5 days (fraction); higher = more cells survive
# ABC-1 = test system: ABC-1
# In short: (§1)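 Five library-drug doses in √10 steps were combined with a fixed anchor-drug dose, or a single drug was given alone, by pin tool to lung cancer cell lines in 1536-well plates the day after seeding. Nuclei were stained and counted after 5 days. Relative viability is the nuclei count in treated wells over that in vehicle wells, taken as the median of duplicate plates.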
# CAL-12T = test system: CAL-12T
# In short: as §1
# COR-L 105 = test system: COR-L 105
# In short: as §1
# ChaGo-K-1 = test system: ChaGo-K-1
# In short: as §1
# EKVX = test system: EKVX
# In short: as §1
# EPLC-272H = test system: EPLC-272H
# In short: as §1
# H3255 = test system: H3255
# In short: as §1
# HCC-366 = test system: HCC-366
# In short: as §1
# HCC-827 = test system: HCC-827
# In short: as §1
# NCI-H1355 = test system: NCI-H1355
# In short: as §1
# NCI-H1792 = test system: NCI-H1792
# In short: as §1
# NCI-H1975 = test system: NCI-H1975
# In short: as §1
# NCI-H1993 = test system: NCI-H1993
# In short: as §1
# NCI-H2009 = test system: NCI-H2009
# In short: as §1
# NCI-H2085 = test system: NCI-H2085
# In short: as §1
# NCI-H2087 = test system: NCI-H2087
# In short: as §1
# NCI-H2228 = test system: NCI-H2228
# In short: as §1
# NCI-H2342 = test system: NCI-H2342
# In short: as §1
# NCI-H322M = test system: NCI-H322M
# In short: as §1
# NCI-H441 = test system: NCI-H441
# In short: as §1
# NCI-H460 = test system: NCI-H460
# In short: as §1
# SK-MES-1 = test system: SK-MES-1
# In short: as §1
smiles,measurement,setting,value
CN1CCN(CCOc2cc(OC3CCOCC3)c3c(Nc4c(Cl)ccc5c4OCO5)ncnc3c2)CC1 [Saracatinib] + CC(=O)c1c(C)c2cnc(Nc3ccc(N4CCNCC4)cn3)nc2n(C2CCCC2)c1=O [Palbociclib] (partner 0.5 µM),relative viability,ABC-1; first compound 0.02 µM,0.624
same,relative viability,ABC-1; first compound 0.2 µM,0.646
same,relative viability,ABC-1; first compound 0.6325 µM,0.891
same,relative viability,ABC-1; first compound 2 µM,0.622
same,relative viability,CAL-12T; first compound 0.02 µM,0.542
same,relative viability,CAL-12T; first compound 0.2 µM,0.409
same,relative viability,CAL-12T; first compound 0.6325 µM,0.527
same,relative viability,CAL-12T; first compound 2 µM,0.152
same,relative viability,COR-L 105; first compound 0.02 µM,0.384
same,relative viability,COR-L 105; first compound 0.2 µM,0.332
same,relative viability,COR-L 105; first compound 0.6325 µM,0.38
same,relative viability,COR-L 105; first compound 2 µM,0.321
same,relative viability,ChaGo-K-1; first compound 0.02 µM,0.896
same,relative viability,ChaGo-K-1; first compound 0.2 µM,0.533
same,relative viability,ChaGo-K-1; first compound 0.6325 µM,0.92
same,relative viability,ChaGo-K-1; first compound 2 µM,0.865
same,relative viability,EKVX; first compound 0.02 µM,0.38
same,relative viability,EKVX; first compound 0.6325 µM,0.306
same,relative viability,EKVX; first compound 2 µM,0.146
same,relative viability,EPLC-272H; first compound 0.02 µM,0.342
same,relative viability,EPLC-272H; first compound 0.2 µM,0.287
same,relative viability,EPLC-272H; first compound 0.6325 µM,0.413
same,relative viability,EPLC-272H; first compound 2 µM,0.305
same,relative viability,H3255; first compound 0.02 µM,0.329
same,relative viability,H3255; first compound 0.2 µM,0.31
same,relative viability,H3255; first compound 0.6325 µM,0.336
same,relative viability,H3255; first compound 2 µM,0.297
same,relative viability,HCC-366; first compound 0.02 µM,0.382
same,relative viability,HCC-366; first compound 0.2 µM,0.176
same,relative viability,HCC-366; first compound 0.6325 µM,0.272
same,relative viability,HCC-366; first compound 2 µM,0.164
same,relative viability,HCC-827; first compound 0.02 µM,0.507
same,relative viability,HCC-827; first compound 0.2 µM,0.314
same,relative viability,HCC-827; first compound 0.6325 µM,0.185
same,relative viability,HCC-827; first compound 2 µM,0.167
same,relative viability,NCI-H1355; first compound 0.02 µM,0.401
same,relative viability,NCI-H1355; first compound 0.2 µM,0.432
same,relative viability,NCI-H1355; first compound 0.6325 µM,0.416
same,relative viability,NCI-H1355; first compound 2 µM,0.371
same,relative viability,NCI-H1792; first compound 0.02 µM,0.567
same,relative viability,NCI-H1792; first compound 0.2 µM,0.439
same,relative viability,NCI-H1792; first compound 0.6325 µM,0.781
same,relative viability,NCI-H1792; first compound 2 µM,0.55
same,relative viability,NCI-H1975; first compound 0.02 µM,0.584
same,relative viability,NCI-H1975; first compound 0.2 µM,0.603
same,relative viability,NCI-H1975; first compound 0.6325 µM,0.718
same,relative viability,NCI-H1975; first compound 2 µM,0.441
same,relative viability,NCI-H1993; first compound 0.02 µM,0.65
same,relative viability,NCI-H1993; first compound 0.2 µM,0.584
same,relative viability,NCI-H1993; first compound 0.6325 µM,0.701
same,relative viability,NCI-H1993; first compound 2 µM,0.523
same,relative viability,NCI-H2009; first compound 0.02 µM,0.261
same,relative viability,NCI-H2009; first compound 0.2 µM,0.136
same,relative viability,NCI-H2009; first compound 0.6325 µM,0.201
same,relative viability,NCI-H2009; first compound 2 µM,0.136
same,relative viability,NCI-H2085; first compound 0.02 µM,0.518
same,relative viability,NCI-H2085; first compound 0.2 µM,0.448
same,relative viability,NCI-H2085; first compound 0.6325 µM,0.499
same,relative viability,NCI-H2085; first compound 2 µM,0.48
same,relative viability,NCI-H2087; first compound 0.02 µM,0.252
same,relative viability,NCI-H2087; first compound 0.2 µM,0.255
same,relative viability,NCI-H2087; first compound 0.6325 µM,0.303
same,relative viability,NCI-H2087; first compound 2 µM,0.179
same,relative viability,NCI-H2228; first compound 0.02 µM,0.955
same,relative viability,NCI-H2228; first compound 0.2 µM,0.649
same,relative viability,NCI-H2228; first compound 0.6325 µM,0.805
same,relative viability,NCI-H2228; first compound 2 µM,0.557
same,relative viability,NCI-H2342; first compound 0.02 µM,0.528
same,relative viability,NCI-H2342; first compound 0.2 µM,0.479
same,relative viability,NCI-H2342; first compound 0.6325 µM,0.524
same,relative viability,NCI-H2342; first compound 2 µM,0.545
same,relative viability,NCI-H322M; first compound 0.02 µM,0.534
same,relative viability,NCI-H322M; first compound 0.2 µM,0.38
same,relative viability,NCI-H322M; first compound 0.6325 µM,0.46
same,relative viability,NCI-H322M; first compound 2 µM,0.306
same,relative viability,NCI-H441; first compound 0.02 µM,0.243
same,relative viability,NCI-H441; first compound 0.2 µM,0.196
same,relative viability,NCI-H441; first compound 0.6325 µM,0.199
same,relative viability,NCI-H441; first compound 2 µM,0.182
same,relative viability,NCI-H460; first compound 0.02 µM,0.146
same,relative viability,NCI-H460; first compound 0.2 µM,0.131
same,relative viability,NCI-H460; first compound 0.6325 µM,0.228
same,relative viability,NCI-H460; first compound 2 µM,0.121
same,relative viability,SK-MES-1; first compound 0.02 µM,0.3
same,relative viability,SK-MES-1; first compound 0.2 µM,0.31
same,relative viability,SK-MES-1; first compound 0.6325 µM,0.309
same,relative viability,SK-MES-1; first compound 2 µM,0.256
CN1CCN(CCOc2cc(OC3CCOCC3)c3c(Nc4c(Cl)ccc5c4OCO5)ncnc3c2)CC1 [Saracatinib] + COc1cccc2cc(-c3nc([C@H]4CC[C@H](C(=O)O)CC4)n4ncnc(N)c34)[nH]c12 [OSI-027] (partner 0.5 µM),relative viability,ABC-1; first compound 0.02 µM,0.428
same,relative viability,ABC-1; first compound 0.2 µM,0.65
same,relative viability,ABC-1; first compound 0.6325 µM,0.547
same,relative viability,ABC-1; first compound 2 µM,0.543
same,relative viability,CAL-12T; first compound 0.02 µM,0.734
same,relative viability,CAL-12T; first compound 0.2 µM,0.677
same,relative viability,CAL-12T; first compound 0.6325 µM,1.08
same,relative viability,CAL-12T; first compound 2 µM,0.57
same,relative viability,COR-L 105; first compound 0.02 µM,0.837
same,relative viability,COR-L 105; first compound 0.2 µM,0.628
same,relative viability,COR-L 105; first compound 0.6325 µM,0.566
same,relative viability,COR-L 105; first compound 2 µM,0.221
same,relative viability,ChaGo-K-1; first compound 0.02 µM,0.707
same,relative viability,ChaGo-K-1; first compound 0.2 µM,0.533
same,relative viability,ChaGo-K-1; first compound 0.6325 µM,0.519
same,relative viability,ChaGo-K-1; first compound 2 µM,0.524
same,relative viability,EKVX; first compound 0.02 µM,0.679
same,relative viability,EKVX; first compound 0.6325 µM,0.746
same,relative viability,EKVX; first compound 2 µM,0.456
same,relative viability,EPLC-272H; first compound 0.02 µM,0.304
same,relative viability,EPLC-272H; first compound 0.2 µM,0.27
same,relative viability,EPLC-272H; first compound 0.6325 µM,0.348
same,relative viability,EPLC-272H; first compound 2 µM,0.278
same,relative viability,H3255; first compound 0.02 µM,0.587
same,relative viability,H3255; first compound 0.2 µM,0.589
same,relative viability,H3255; first compound 0.6325 µM,0.542
same,relative viability,H3255; first compound 2 µM,0.284
same,relative viability,HCC-366; first compound 0.02 µM,1.02
same,relative viability,HCC-366; first compound 0.6325 µM,0.757
same,relative viability,HCC-366; first compound 2 µM,0.385
same,relative viability,HCC-827; first compound 0.02 µM,0.791
same,relative viability,HCC-827; first compound 0.2 µM,0.564
same,relative viability,HCC-827; first compound 0.6325 µM,0.259
same,relative viability,HCC-827; first compound 2 µM,0.122
same,relative viability,NCI-H1355; first compound 0.02 µM,0.482
same,relative viability,NCI-H1355; first compound 0.2 µM,0.379
same,relative viability,NCI-H1355; first compound 0.6325 µM,0.427
same,relative viability,NCI-H1355; first compound 2 µM,0.323
same,relative viability,NCI-H1792; first compound 0.02 µM,0.771
same,relative viability,NCI-H1792; first compound 0.2 µM,0.462
same,relative viability,NCI-H1792; first compound 0.6325 µM,0.809
same,relative viability,NCI-H1792; first compound 2 µM,0.558
same,relative viability,NCI-H1975; first compound 0.02 µM,0.678
same,relative viability,NCI-H1975; first compound 0.2 µM,0.585
same,relative viability,NCI-H1975; first compound 0.6325 µM,0.686
same,relative viability,NCI-H1975; first compound 2 µM,0.403
same,relative viability,NCI-H1993; first compound 0.02 µM,0.54
same,relative viability,NCI-H1993; first compound 0.2 µM,0.508
same,relative viability,NCI-H1993; first compound 0.6325 µM,0.497
same,relative viability,NCI-H1993; first compound 2 µM,0.525
same,relative viability,NCI-H2009; first compound 0.02 µM,0.628
same,relative viability,NCI-H2009; first compound 0.2 µM,0.547
same,relative viability,NCI-H2009; first compound 0.6325 µM,0.579
same,relative viability,NCI-H2009; first compound 2 µM,0.357
same,relative viability,NCI-H2085; first compound 0.02 µM,0.839
same,relative viability,NCI-H2085; first compound 0.2 µM,0.723
same,relative viability,NCI-H2085; first compound 0.6325 µM,0.772
same,relative viability,NCI-H2085; first compound 2 µM,0.78
same,relative viability,NCI-H2087; first compound 0.02 µM,0.609
same,relative viability,NCI-H2087; first compound 0.2 µM,0.393
same,relative viability,NCI-H2087; first compound 0.6325 µM,0.953
same,relative viability,NCI-H2087; first compound 2 µM,0.742
same,relative viability,NCI-H2228; first compound 0.02 µM,0.719
same,relative viability,NCI-H2228; first compound 0.2 µM,0.343
same,relative viability,NCI-H2228; first compound 0.6325 µM,0.529
same,relative viability,NCI-H2228; first compound 2 µM,0.381
same,relative viability,NCI-H2342; first compound 0.02 µM,0.689
same,relative viability,NCI-H2342; first compound 0.2 µM,0.702
same,relative viability,NCI-H2342; first compound 0.6325 µM,0.64
same,relative viability,NCI-H2342; first compound 2 µM,0.637
same,relative viability,NCI-H322M; first compound 0.02 µM,0.56
same,relative viability,NCI-H322M; first compound 0.2 µM,0.499
same,relative viability,NCI-H322M; first compound 0.6325 µM,0.449
same,relative viability,NCI-H322M; first compound 2 µM,0.275
same,relative viability,NCI-H441; first compound 0.02 µM,0.614
same,relative viability,NCI-H441; first compound 0.2 µM,0.532
same,relative viability,NCI-H441; first compound 0.6325 µM,0.875
same,relative viability,NCI-H441; first compound 2 µM,0.623
same,relative viability,NCI-H460; first compound 0.02 µM,0.656
same,relative viability,NCI-H460; first compound 0.2 µM,0.394
same,relative viability,NCI-H460; first compound 0.6325 µM,0.623
same,relative viability,NCI-H460; first compound 2 µM,0.376
same,relative viability,SK-MES-1; first compound 0.02 µM,0.609
same,relative viability,SK-MES-1; first compound 0.2 µM,0.603
same,relative viability,SK-MES-1; first compound 0.6325 µM,0.475
same,relative viability,SK-MES-1; first compound 2 µM,0.234

# Source: the supplement of paper PMC10307832
